From US10111896B2, “Composition comprising a combination of DNA methylation inhibitor and a vitamin D receptor agonist for the treatment of drug resistant cancer or for the prevention of tumor relapse” (INSERM (Institut National de la Sante et de la Recherche …, priority 2014, dated 2018)

Tests used:
[1] = tested on: VDR and VDR targeted genes (CAMP and CYP24A1) in HL60 cells; conditions: 6 hours
Experimental: (§1) (A) Schematic representation of the VDR promoter. 5′-CpG-3′ islands present in VDR promoter (region ranging from −1035 to −75+ bp relative to the exon 1a transcriptional start codon) represented by dashes. […] Cell viability was evaluated by ATP assay. Results are presented as mean±SEM (ns not significant, *p<0.05, **p<0.01, ***p<0.001). […] HL60 were mock-treated or treated with 5-AZA (5 μM) or Vitamin D ([…]; as positive control) for 6 hours. (E) VDR or VDR-target genes (CAMP and CYP24A1) expression was evaluated by qPCR. Results are presented as mean±SEM. […] Primary cells (n=3 patients) were mock-treated or treated with 5-AZA (5 μM) or inecalcitol (INEC; […]) or both for 6 hours. VDR or VDR-target genes (CAMP and CYP24A1) expression was evaluated by qPCR. Results are presented as mean±SEM.

[2] = tested on: VDR-target genes (CAMP and CYP24A1) in primary cells from AML patients; assay: qPCR of VDR-target genes in leukemic cells from AML patients; type: cell-based, human; conditions: primary cells from AML patients (n=3); 5-AZA 5 μM, 6 hours
Experimental: as §1

U937 cells = assay: Myeloid differentiation, CD11b and CD14 expression by flow cytometry in AML cell lines; type: cell-based, human; conditions: 5-AZA 5 μM, INEC 10 nM or both, 72 hours
Experimental: (A) Structural formulas of 1-25 dihydroxyvitamin D3 (VD) and VDR agonist Inecalcitol. http://www.chemblink.com/products/163217-09-2.htm. (B-D) Hypomethylating agents synergize with VDR agonists to promote myeloid differentiation and VDR activity. (B) U937 cells were mock-treated or treated with 5-AZA (5 μM), INEC (10 nM) or both for 72 hours. CD11b and CD14 expression was evaluated by flow cytometry. Results are presented in fold increase compared to vehicle Histograms are mean±SEM (n≥10; *p<0.05, **p<0.01, ***p<0.001). (C) HL60 cells were mock-treated or treated with 5-AZA (5 μM), with Vitamin D (300 nM) or INEC (10 nM) for 16 hours. Granocyte differentiation genes (PRTN3 and NE) and monocyte differentiation genes (TREML2 and SERPINB8) were accessed by qPCR. Results are presented as mean±SEM. (D) U937 cells were mock-treated or treated with 5-AZA (5 μM), INEC (10 nM) or both for 16 hours. VDR activation was evaluated by immunoblot using anti-phospho-VDR specific antibodies. VDR antibodies were used to control protein loading. (E-G) Combined Hypomethylating agents/VDR agonists therapy impairs tumor growth. (E) HL60 cells were mock-treated or treated with 5-AZA (5 μM), with INEC (10 nM) or both for 16 hours. […] (F) Expression of cell cycle regulator genes p15, p21 and p27 was evaluated by qPCR. […] The p-value was determined using the log-rank test. […]

U937 cells xenograft = assay: Subcutaneous U937 tumor xenograft in athymic Nude mice; type: in vivo, mouse; conditions: 5-AZA 5 mg/kg i.p. five injections, INEC 20 μg per mice i.p. three times a week, vs control mice
Experimental: (B) U937 cells were mock-treated or treated with 5-AZA (5 μM), INEC (10 nM) or both for 72 hours. CD11b and CD14 expression was evaluated by flow cytometry. […] (C) HL60 cells were mock-treated or treated with 5-AZA (5 μM), with Vitamin D (300 nM) or INEC (10 nM) for 16 hours. Granocyte differentiation genes (PRTN3 and NE) and monocyte differentiation genes (TREML2 and SERPINB8) were accessed by qPCR. Results are presented as mean±SEM. (D) U937 cells were mock-treated or treated with 5-AZA (5 μM), INEC (10 nM) or both for 16 hours. VDR activation was evaluated by immunoblot using anti-phospho-VDR specific antibodies. VDR antibodies were used to control protein loading. […] (E) HL60 cells were mock-treated or treated with 5-AZA (5 μM), with INEC (10 nM) or both for 16 hours. Cell cycle analyses were performed by topro-3 labeling. Results are presented as mean±SEM. […] (F) Expression of cell cycle regulator genes p15, p21 and p27 was evaluated by qPCR. Results are presented as mean±SEM. (G) Kaplan-Meier plot of survival of mice treated with vehicle (PBS), 5-Acytidine (5 mg/kg intraperitoneally three times a week for five injections) and or INEC (20 μg per mice intraperitoneally, three time a week) after subcutaneous xenograft with U937 cells (n=8 tumors in each group). The p-value was determined using the log-rank test.
For tumor establishment, U937 or OCI-AML3 cells as indicated were mixed with Matrigel (BD Biosciences) (1:1, vol/vol) and injected subcutaneously (5×106/flank) into 10-week old female athymic Nude mice (Janvier laboratories, France). The mice were then injected i.p. with 5-Azacytidine (Celgene) (5 mg/kg on day 5, 7, 9, 11 and 13), Inecalcitol (Hybrigenics) (20 μg/day 3 times a week), and the combination of 5-Azacytidine and Inecalcitol or PBS as a vehicle control. The tumor growth was measured as previously described (Lepelletier 2007).

VDR promoter [3] = assay: Methylation-sensitive high resolution melting (MS-HRM) analysis on THP-1 cells; type: cell-based, human; conditions: 5-AZA 1 μM, 96 hours
Experimental: as §1

[4] = tested on: wild-type MLL-ENL transformed cells; assay: Cell viability by ATP assay, wild-type MLL-ENL transformed cells; type: cell-based, mouse; conditions: growing concentrations, 72 h
Experimental: as §1
(§2) Cells were seeded into 96-well plates, and then returned to the 37° C. incubator after the addition of different reactives or vehicle controls DMSO and ethanol if not otherwise stated. Celltiter Glo reagents (Promega) were added after 48 to 96 hours to determine cell viability by measuring ATP levels.

[5] = tested on: VDR-/- MLL-ENL transformed cells; assay: Cell viability by ATP assay, VDR-/- MLL-ENL transformed cells; type: cell-based, mouse; conditions: growing concentrations, 72 h
Experimental: as §1, §2

VDR promoter [6] = assay: VDR promoter methylation analysis (methylation specific PCR) in primary AML samples; type: cell-based, human; conditions: 5-AZA 1 μM, 96 hours, vs not treated
Experimental: as §1

AML cells = assay: Dose-response studies of AML cells differentiation; type: cell-based; conditions: compared with VD
[7] = tested on: FLT3-ITD-transformed bone marrow hematopoietic progenitors; assay: Methylcellulose colony-forming and replating assay of FLT3-ITD transformed cells; type: cell-based, mouse
Experimental: (A) Inecalcitol decreases clonogenicity of FLT3-ITD of transformed cells. FLT3-ITD-transformed bone marrow hematopoietic progenitors were plated (30.000 cells/condition) in semisolid methylcellulose media containing cytokines (M-3434) containing or not INEC (10 nM) and scored following 7 to 10 days of culture. For re-plating assays 10-30.000 cells were plated (as indicated) in the presence or in the absence of INEC (10 nM) for each condition. Histograms represents numbers of colonies (mean±SEM of three independent experiments). Results are presented as mean±SEM of 4 independent experiments.
Colony formation by transformed or not mouse cells was examined with the use of Methocult medium (MethoCult GF M3434, StemCell Technologies). WT and VDR−/− cells infected were collected from BMT with oncogene or not and transferred to Methocult medium. Colonies were scored one week after plating for determination of the number of colonies. For serial plating cells were collected from methylcellulose, washed once in PBS, counted and replated in Methocult. For some experiments, 10 nM Inecalcitol (hybrigenics) was added to the culture medium.
LIC are a subset of leukemic cells in the bulk leukemia population bearing resistance to chemotherapy and therefore at the origin of relapses. Next we explored the efficacy of VDR agonist therapy in targeting LIC cells. To test this hypothesis we transduced bone marrow precursors from wild-type and VDR−/− mice with the FLT3-ITD construct. Cells were plated in semi-solid cultures containing INEC or vehicle as a control (FIG. 6A). […] To further examine is the INEC effect was reversible we divided 2nd replating INEC-treated cultures in two groups containing INEC or a vehicle.

FLT3-ITD/NPM1 AML blasts [8] = assay: In vitro treatment of FLT3-ITD/NPM1 AML blasts, myeloid differentiation markers; type: cell-based
[9] = tested on: β-catenin in OCI-AML3 cells; assay: β-catenin expression by flow cytometry in OCI-AML3 cells; type: cell-based, human; conditions: INEC 10, 100 or 1000 nM, 48 hours
FLT3-ITD/NPM1 AML blasts [10] = assay: Adoptive transfer of FLT3-ITD/NPM1 AML blasts and bone marrow cells in mice; type: in vivo, mouse
Excerpt: In agreement, biological as well as immunophenotypic markers of leukemia cells were normalized in INEC-treated animals (FIG. 6C).

| Compound | expression of VDR targeted genes (CAMP and CYP24A1) ([1]; 5-AZA 5 μM or Vitamin D 1000 μM) | VDR expression, fold increase ([1]; 5-AZA 5 μM) [fold] | VDR-target genes expression [2] | increase in myeloid differentiation (CD11b and CD14 expression), fold increase compared to vehicle (U937 cells) [fold] | survival of xenografted mice (U937 cells xenograft) | tumor size / tumor growth (U937 cells xenograft) | VDR promoter methylation (MS-HRM) (VDR promoter [3]) | cell sensitivity (viability) [4] | cell survival [5] | VDR promoter methylation (VDR promoter [6]) | effectiveness to promote AML cells differentiation relative to VD (AML cells) [fold] | CFC after INEC wash-out ([7]; 2nd replating INEC-treated cultures switched to vehicle) | decrease in clonogenic potential compared to vehicle-treated cells ([7]; INEC 10 nM in methylcellulose, first plating) [fold] | colonies at the 4th round of plating ([7]; INEC 10 nM, serial replating) | expression of myeloid differentiation markers (FLT3-ITD/NPM1 AML blasts [8]) | β-catenin pathway / expression [9] | leukemia development after passive transfer of BM cells from treated animals (FLT3-ITD/NPM1 AML blasts [10]; in comparison to mock-treated animals) | biological and immunophenotypic markers of leukemia cells in treated animals (FLT3-ITD/NPM1 AML blasts [10]; mouse, in vivo) | leukemia development in mice adoptively transferred with treated cells (FLT3-ITD/NPM1 AML blasts [10]; mouse, in vivo) |
| --- | --- | --- | --- | --- | --- | --- | --- | --- | --- | --- | --- | --- | --- | --- | --- | --- | --- | --- | --- |
| Nc1ncn([C@@H]2O[C@H](CO)[C@@H](O)[C@H]2O)c(=O)n1 [5-AZA, 5-azacytidine] | induced the expression | 2 | induces VDR-target genes expression | 1.3 | did not observe a significant effect | did not observe a significant effect | revert VDR promoter methylation | sensitive | not altered | decrease in methylation | – | – | – | – | – | – | – | – | – |
| C[C@H](CC#CC(C)(C)O)[C@H]1CC[C@@H]2/C(=C/C=C3C[C@@H](O)C[C@H](O)C3)CCC[C@@]21C [INEC, 19-nor-14-epi-23-yne-1,25-(OH)2D3] | – | – | – | 4.5 | did not observe a significant effect | did not observe a significant effect | – | – | – | – | 1000 | reestablished CFC | 5 | virtually no colonies | increased expression | inhibits β-cathenin pathway | strongly delayed leukemia development | normalized | not able to develop leukemia |
